In ChEMBL document CHEMBL2401704, “Inhibition of rhodesain as a novel therapeutic modality for human African trypanosomiasis” (J Med Chem, 2013):
Each block holds one compound with its values, some of them ahead of it. Residues, ends and D or L forms follow the SMILES beside them. *: point of attachment. Cbz = O=C(OCc1ccccc1)*; CH2Cl = ClC*

Columns and labels:
[1] = Inhibition of Trypanosoma brucei rhodesain
Trypsin = Trypsin (Homo sapiens, UniProt P07477+P07478+P35030); assay: Inhibition of trypsin (unknown origin); assay type: protein assay
[2] = Inhibition of cathepsin B (unknown origin); design: species or system Homo sapiens
Papain = target: T1, Papain (Carica papaya, UniProt P00784); assay: Inhibition of papaya papain
T1 sequence (P00784 whole entry): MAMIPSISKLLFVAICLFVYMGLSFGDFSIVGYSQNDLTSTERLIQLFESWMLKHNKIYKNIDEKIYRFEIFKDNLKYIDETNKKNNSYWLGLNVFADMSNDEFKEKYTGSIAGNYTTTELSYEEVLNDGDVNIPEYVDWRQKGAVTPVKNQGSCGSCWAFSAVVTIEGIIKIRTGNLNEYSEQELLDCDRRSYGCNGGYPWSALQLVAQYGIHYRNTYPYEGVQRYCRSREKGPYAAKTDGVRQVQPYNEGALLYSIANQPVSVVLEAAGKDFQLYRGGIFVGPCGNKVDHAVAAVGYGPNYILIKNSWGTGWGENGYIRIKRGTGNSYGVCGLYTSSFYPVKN

Cruzipain = Cruzipain (Trypanosoma cruzi, UniProt P25779); assay: Inhibition of Trypanosoma cruzi cruzain
[3] = Inhibition of Trypanosoma brucei recombinant rhodesain
L6 = assay: Cytotoxicity against rat L6 cells; assay type: cell-based
Plasmodium falciparum = assay: Antiprotozoal activity against Plasmodium falciparum; assay type: functional, organism-based
[4] = Inhibition of Plasmodium falciparum Falcipain 2
[5] = tested on: Trypanosoma brucei rhodesiense; assay: Antitrypanosomal activity against Trypanosoma brucei rhodesiense; assay type: functional, organism-based
Rhodesain = Rhodesain (Trypanosoma brucei rhodesiense, UniProt Q95PM0); assay: Inhibition of Trypanosoma brucei rhodesiense rhodesain
[6] = tested on: Trypanosoma brucei brucei; assay: Antitrypanosomal activity against Trypanosoma brucei brucei; assay type: functional, organism-based
Trypanosoma brucei [7] = assay: Antitrypanosomal activity against Trypanosoma brucei; assay type: functional, organism-based
Trypanosoma brucei [8] = assay: Inhibition of Trypanosoma brucei rhodesain assessed as second order rate constant
[9] = tested on: Trypanosoma brucei brucei; assay: Antitrypanosomal activity against blood stream form of Trypanosoma brucei brucei; assay type: functional, organism-based
[10] = tested on: Trypanosoma brucei brucei; assay: Antitrypanosomal activity against procyclic form of Trypanosoma brucei brucei; assay type: functional; conditions: read-out: ED50 (the source's name)

Cruzipain, sequence (P25779 whole entry): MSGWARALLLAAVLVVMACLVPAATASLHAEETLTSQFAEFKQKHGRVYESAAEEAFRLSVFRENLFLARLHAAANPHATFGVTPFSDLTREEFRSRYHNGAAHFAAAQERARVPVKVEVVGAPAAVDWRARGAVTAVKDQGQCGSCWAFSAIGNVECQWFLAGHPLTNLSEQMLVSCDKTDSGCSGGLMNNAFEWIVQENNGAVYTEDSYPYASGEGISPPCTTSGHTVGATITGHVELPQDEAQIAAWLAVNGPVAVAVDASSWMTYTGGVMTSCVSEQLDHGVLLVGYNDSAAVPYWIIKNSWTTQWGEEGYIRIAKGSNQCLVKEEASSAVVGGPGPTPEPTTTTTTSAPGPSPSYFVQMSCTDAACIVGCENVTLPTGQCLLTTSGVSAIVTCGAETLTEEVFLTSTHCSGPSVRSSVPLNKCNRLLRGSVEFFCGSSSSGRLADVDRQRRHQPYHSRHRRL
Rhodesain, sequence (Q95PM0 whole entry): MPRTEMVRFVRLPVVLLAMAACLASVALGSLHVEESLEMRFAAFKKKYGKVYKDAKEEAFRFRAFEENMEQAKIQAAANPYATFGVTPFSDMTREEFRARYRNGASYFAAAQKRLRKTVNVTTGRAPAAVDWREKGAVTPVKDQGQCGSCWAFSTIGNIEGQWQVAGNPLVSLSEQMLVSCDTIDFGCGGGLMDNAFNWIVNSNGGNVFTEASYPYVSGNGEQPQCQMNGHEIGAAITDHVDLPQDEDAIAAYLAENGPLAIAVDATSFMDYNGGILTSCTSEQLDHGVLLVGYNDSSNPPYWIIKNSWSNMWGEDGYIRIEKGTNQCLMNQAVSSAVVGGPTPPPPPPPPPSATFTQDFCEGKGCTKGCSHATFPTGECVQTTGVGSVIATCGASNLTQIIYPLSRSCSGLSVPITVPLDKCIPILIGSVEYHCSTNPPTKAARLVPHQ

IC50 (Trypsin): > 50 µM | IC50 [2]: 10.7 µM | IC50 (Papain): > 50 µM | IC50 (Cruzipain): 1.9 µM
Compound: CCOC(=O)c1ccc(NC(=S)NC(=O)c2ccc(Cl)c(Cl)c2)cc1
IC50 [1]: 2 µM

Compound: CN(C#N)N(C)C(=O)[C@H](Cc1ccccc1)NC(=O)OC(C)(C)C
IC50 [3]: 0.06 nM

Compound: N#Cc1nc(N2CCOCC2)nc(N(c2ccccc2F)C2CCCCC2)n1
IC50 (L6): 11.4 µM | IC50 (Plasmodium falciparum): > 5 µM | Ki [4]: 0.025 µM | IC50 [5]: 15 µM | Ki (Rhodesain): 0.011 µM

Compound: CC(C)[C@H](NC(=O)c1ccc2c(c1)OCCO2)C(=O)N(C)N(C#N)CCCc1ccccc1
IC50 [3]: 54 nM

IC50 [5]: 0.072 µM
Compound: N/C(S)=N/N=C(\C=C\c1ccccc1)c1ccc(Cl)c(Cl)c1

Ki [1]: 2.08 µM
Compound: N=C(NC(=O)OCc1ccccc1)NC(=O)c1ccc(C(=O)NCc2ccccc2)o1
Ki [4]: 2.69 µM

IC50 [6]: 0.22 µM | Ki [1]: 0.11 µM
Compound: CC(C)(C)OC(=O)NCc1cccc(NC(=O)c2ccc(C(=O)NC(=N)NC(=O)OCc3ccccc3)[nH]2)c1
Ki [4]: 0.62 µM

IC50 [6]: 8.31 µM | Ki [1]: 0.05 µM
Compound: N=C(NC(=O)OCc1ccccc1)NC(=O)c1ccc(C(=O)NCc2cccc(NC(=O)OCc3ccccc3)c2)o1
Ki [4]: 1.15 µM

Compound: CC(C)C[C@H](NC(=O)c1ccc2c(c1)OCCO2)C(=O)N(C)N(C#N)CCc1ccccc1
IC50 [3]: 0.71 nM

IC50 (Cruzipain): 3 µM
Compound: O=C(NC(=S)Nc1ncccc1OCc1ccccc1)c1cccn1S(=O)(=O)c1ccccc1
IC50 [1]: 3.5 µM

IC50 (Trypanosoma brucei [7]): > 20 µM
Compound: C/C(=N\N=C(\N)S)c1cccc(Br)c1
IC50 [1]: 0.05 µM

Compound: CC(C)[C@H](NC(=O)c1ccc2c(c1)OCCO2)C(=O)N(C)N(C#N)Cc1ccccc1
IC50 [3]: 15.8 nM

Compound: NC(=S)/N=N/c1c(O)[nH]c2ccccc12
IC50 [1]: 3.5 µM

IC50 (Plasmodium falciparum): 1.8 µM | IC50 [5]: 19.6 µM
Compound: COCCNc1nc(C#N)nc(N(Cc2cccc(C(F)(F)F)c2)C2C3CC4CC(C3)CC2C4)n1 (centres undefined)
IC50 (L6): 8.1 µM | Ki [4]: 9.8 µM

Compound: CCCCCN(C#N)N(C)C(=O)[C@H](CC(C)C)NC(=O)c1ccc2c(c1)OCCO2
IC50 [3]: 0.33 nM

K (Trypanosoma brucei [8]): 15.8 ×10⁶ /M/min
Compound: CC(C)C[C@H](NC(=O)N1CCOCC1)C(=O)N[C@H](/C=C/S(=O)(=O)c1ccccc1)CCc1ccccc1

Compound: CN(C(=O)[C@H](Cc1ccccc1)NC(=O)OCc1ccccc1)N(C#N)CCc1ccccc1
IC50 [3]: 0.81 nM

IC50 [9]: 31 µM
Compound: C[C@H](NC(=O)[C@H](Cc1ccccc1)NC(=O)OCc1ccccc1)C(=O)CF

IC50 [6]: > 100 µM | Ki [1]: 0.028 µM
Compound: N=C(NC(=O)OCc1ccccc1)NC(=O)c1ccc(C(=O)NCc2ccc(NC(=O)OCc3ccccc3)cc2)[nH]1
Ki [4]: 0.87 µM

IC50 (Trypanosoma brucei [7]): > 20 µM
Compound: C/C(=N\NC(N)=S)c1cccc(/C(C)=N/NC(N)=S)c1
IC50 [1]: 0.33 µM

IC50 [6]: 9.17 µM | Ki [1]: 0.05 µM
Compound: N=C(NC(=O)OCc1ccccc1)NC(=O)c1ccc(C(=O)NCc2ccccc2)[nH]1
Ki [4]: 7.81 µM

Compound: CN(C(=O)[C@H](Cc1ccccc1)NC(=O)c1ccc2c(c1)OCCO2)N(C#N)CCc1ccccc1
IC50 [3]: 1.86 nM

IC50 (Trypanosoma brucei [7]): 8 µM
Compound: C/C(=N\N=C(\N)S)c1cccc(Nc2ccccc2)c1
IC50 [1]: 0.8 µM

Compound: NC(=S)/N=N/c1c(O)[nH]c2ccc(I)cc12
IC50 [1]: 1 µM

Compound: CC(C)C[C@H](NC(=O)c1ccc2c(c1)OCCO2)C(=O)N(C)N(C#N)CCCc1ccccc1
IC50 [3]: 0.14 nM

IC50 (Trypanosoma brucei [7]): 12 µM
Compound: C/C(=N\N=C(\N)S)c1cccc(-c2ccccc2)c1
IC50 [1]: 1.1 µM

K (Trypanosoma brucei [8]): 1.61 ×10⁷ /M/min
Compound: O=C(N[C@@H](Cc1ccccc1)C(=O)N[C@H](/C=C/S(=O)(=O)c1ccccc1)CCc1ccccc1)OCc1ccccc1

Compound: CC(C)[C@H](NC(=O)c1ccc2c(c1)OCCO2)C(=O)N(C)N(C#N)CCc1ccccc1
IC50 [3]: 35.1 nM

K (Trypanosoma brucei [8]): 3.48 ×10⁸ /M/min
Compound: O=C(N[C@@H](Cc1ccccc1)C(=O)N[C@H](/C=C/S(=O)(=O)Oc1ccccc1)CCc1ccccc1)OCc1ccccc1

IC50 [9]: 3.6 µM
Compound: O=C(N[C@@H](Cc1ccccc1)C(=O)N[C@@H](Cc1ccccc1)C(=O)CCl)OCc1ccccc1 (Cbz-Phe-Phe-CH2Cl)

Compound: CC(C)[C@H](NC(=O)c1ccc2c(c1)OCCO2)C(=O)N(C)N(C)C#N
IC50 [3]: 5.4 nM

K (Trypanosoma brucei [8]): 1.09 ×10⁷ /M/min
Compound: O=C(N[C@@H](Cc1ccccc1)C(=O)N[C@H](/C=C/S(=O)(=O)CCc1ccccc1)CCc1ccccc1)OCc1ccccc1

IC50 (Trypanosoma brucei [7]): 0.3 µM
Compound: CS/C(S)=N/N=C(\C)c1ccccn1
IC50 [1]: > 20 µM

EC50 [10]: 0.7 µM | EC50 ([9]; read-out: ED50 (the source's name)): 1.2 µM
Compound: CN(C(=O)[C@H](Cc1ccccc1)NC(=O)OCc1ccccc1)N(C#N)CCCc1ccccc1
IC50 [3]: 2 nM

IC50 (Trypanosoma brucei [7]): 3 µM
Compound: C/C(=N\N=C(\N)S)c1ccc(Oc2ccccc2)cc1
IC50 [1]: 8 µM

Compound: CCN(c1nc(C#N)nc(N2CCOCC2)n1)C1CCCCC1
IC50 (L6): 45.5 µM | IC50 (Plasmodium falciparum): > 5 µM | Ki [4]: 0.08 µM | IC50 [5]: 44.1 µM | Ki (Rhodesain): 0.1 µM
